Here are results for four compounds from patent US20240132457A1, “3-(2-(BENZO[D]THIAZOL-2-YL)-2-(PHENYLSUFONAMIDO)ETHYL)BENZIMIDAMIDE DERIVATIVES AND RELATED COMPOUNDS AS TMPRSS2 INHIBITORS FOR THE TREATMENT OF VIRAL INFECTIONS” (INTEGERBIO, INC., priority 2020, published 2024).

Holding throughout (format): biochemical
One test addresses Cathepsin B (Homo sapiens, UniProt P07858). Briefly: Non-TMPRSS2 protease panel: Cathepsin B. Particulars: 10-dose, 3-fold from 10 μM. The method, then:
(§1) Biochemical activity of compound 1 (racemic mixture, batch 1), compound 3 (racemic), compound 11, and compound 2 (enantiomer 1, batch 1) in proteases indicated in Table 21, Table 22, Table 23, and Table 24, respectively, were measured by testing the compounds in a 10-dose IC50 with a 3-fold series dilution starting at 10 μM against the proteases. The protease activities were monitored as a time-course measurement of the increase in fluorescence signal from fluorescently-labeled peptide substrate, and initial linear portion of slope (signal/min) was analyzed. The curve fits were performed when the activities at the highest concentration of compounds were less than 65%.

The next test deals with Furin (Homo sapiens, UniProt P09958). Briefly: Non-TMPRSS2 protease panel: Furin. Particulars: 10-dose, 3-fold from 10 μM. As to the method:
as §1

The target in a further test is Kallikrein 7 (Homo sapiens, UniProt P49862). Briefly: Non-TMPRSS2 protease panel: Kallikrein 7. Conditions: 10-dose, 3-fold from 10 μM. The method, then:
as §1

Another test addresses T1, Matriptase 2 (Homo sapiens, UniProt Q8IU80).
T1 sequence (Q8IU80 1-811): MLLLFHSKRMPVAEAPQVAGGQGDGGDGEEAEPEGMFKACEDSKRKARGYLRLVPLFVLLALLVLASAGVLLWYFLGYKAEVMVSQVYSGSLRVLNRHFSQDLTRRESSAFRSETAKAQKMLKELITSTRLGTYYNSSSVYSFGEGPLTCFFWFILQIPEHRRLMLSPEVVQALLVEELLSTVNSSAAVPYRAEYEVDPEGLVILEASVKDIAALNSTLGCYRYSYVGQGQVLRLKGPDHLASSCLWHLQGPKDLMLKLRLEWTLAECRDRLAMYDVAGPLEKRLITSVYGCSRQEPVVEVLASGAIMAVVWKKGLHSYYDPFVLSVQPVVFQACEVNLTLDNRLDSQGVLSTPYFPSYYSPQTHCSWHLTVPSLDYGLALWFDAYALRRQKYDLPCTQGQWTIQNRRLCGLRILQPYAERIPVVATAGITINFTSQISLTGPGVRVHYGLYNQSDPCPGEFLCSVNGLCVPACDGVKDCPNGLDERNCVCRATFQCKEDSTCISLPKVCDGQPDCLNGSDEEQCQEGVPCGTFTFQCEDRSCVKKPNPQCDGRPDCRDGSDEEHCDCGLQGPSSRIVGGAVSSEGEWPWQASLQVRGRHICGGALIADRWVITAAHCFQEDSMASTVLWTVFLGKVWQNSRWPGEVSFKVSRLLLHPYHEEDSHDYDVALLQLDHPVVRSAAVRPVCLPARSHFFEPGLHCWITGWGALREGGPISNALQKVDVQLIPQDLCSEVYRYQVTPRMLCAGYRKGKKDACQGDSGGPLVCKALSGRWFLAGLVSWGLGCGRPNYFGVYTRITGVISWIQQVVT
The test is described as follows: Non-TMPRSS2 protease panel: Matriptase 2. Conditions: 10-dose, 3-fold from 10 μM. As to the method: as §1

The next test concerns the target T2, MMP 1 (Homo sapiens, UniProt P03956).
T2 sequence (P03956 100-469): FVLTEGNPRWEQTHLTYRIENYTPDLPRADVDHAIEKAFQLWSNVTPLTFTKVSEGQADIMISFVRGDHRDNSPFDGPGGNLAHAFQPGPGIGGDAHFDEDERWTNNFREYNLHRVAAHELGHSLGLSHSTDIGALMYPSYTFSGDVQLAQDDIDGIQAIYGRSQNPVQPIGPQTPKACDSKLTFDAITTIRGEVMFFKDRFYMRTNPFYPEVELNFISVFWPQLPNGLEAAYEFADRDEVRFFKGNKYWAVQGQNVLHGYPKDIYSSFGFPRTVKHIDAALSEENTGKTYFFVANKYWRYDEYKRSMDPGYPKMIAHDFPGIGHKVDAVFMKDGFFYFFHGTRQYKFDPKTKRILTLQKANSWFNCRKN
Briefly: Non-TMPRSS2 protease panel: MMP 1. Particulars: 10-dose, 3-fold from 10 μM. As to the method:
as §1

A further test concerns the target Tryptase g1 (Homo sapiens, UniProt Q9NRR2). Briefly: Non-TMPRSS2 protease panel: Tryptase g1. Particulars: 10-dose, 3-fold from 10 μM. As to the method: as §1
Test [1] concerns the target T3, Human TMPRSS2-(AA 106-492) (Homo sapiens, UniProt O15393).
T3 construct: Human TMPRSS2-(AA 106-492)-; purchased CusaBio CSB-YP023924HU; host or cells: yeast
The test is described as follows: TMPRSS2 Assay 2 (Example 42), 384-well primary assay. Conditions: TMPRSS2 20 nM, substrate 40 μM, 150 min at room temperature. As to the method:
The concentration-response testing of compounds was in primary, readout counter as 11-point compound dilution series in 384-well assay plate format in triplicates (n=3). The compound dilutions was prepared in an intermediate plate (spot volume=150 nL), and then the assay reagents were prepared. After preparing the intermediate plates containing the assay reagents for the transfer into the assay plate using the Selma 384/25 μl pipettor, the assay reagents were transferred into the assay plate.
The resulting plate was centrifuged at g=290 for 30 s, and then the plate was incubated at room temperature for 150 minutes. 10 μl 2.5× of stop reagent (50 mM acetic acid) (Selma) was added, and then the plate was read on Safire e.
The materials, reagents, and equipment used for the assay is described in Table 3, Table 4, Table 5, and Table 6.
For the primary assay, the assay buffer (50 mM Tris-HCL, 150 mM NaCl, 0.01% Tween®20, pH8.0) was prepared using the stocks as described in Table 7.
The enzyme dilution was prepared as described in Table 8.
The final assay concentration was referred to 15 μl assay volume. Using a “greiner-dilution” as intermediate plate, the according wells were filled ([…]). The volume was adjusted using another plate type. Substrate dilution was prepared as described in Table 9.
The final assay concentration was referred to 15 μl assay volume. The DMSO concentration of the substrate working dilution was 1.2%. Using a “greiner-dilution” as intermediate plate, the according wells were filled (23 μl). Using another plate type, the volume was adjusted.
The compounds were dissolved in DM50. 150 nl of the compound were transferred into the assay plate prior to addition of the assay components (final assay volume of 15 μl).
The final concentration of the tool compound (low control) in the assay (assay volume l) was 0.8 μM. For the High control 5 μl/well […] was filled in column 6. The readout settings are described in Table 14. The readout was performed utilizing Safire^2 Microplate Reader. […]

Kallikrein 7, sequence (P49862 30-253): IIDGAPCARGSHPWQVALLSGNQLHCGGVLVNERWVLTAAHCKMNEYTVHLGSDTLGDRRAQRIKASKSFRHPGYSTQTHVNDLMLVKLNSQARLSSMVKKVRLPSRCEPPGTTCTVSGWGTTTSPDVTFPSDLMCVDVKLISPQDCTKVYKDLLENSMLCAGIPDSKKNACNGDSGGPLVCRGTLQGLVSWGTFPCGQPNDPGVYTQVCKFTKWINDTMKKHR
Furin, sequence (P09958 108-794): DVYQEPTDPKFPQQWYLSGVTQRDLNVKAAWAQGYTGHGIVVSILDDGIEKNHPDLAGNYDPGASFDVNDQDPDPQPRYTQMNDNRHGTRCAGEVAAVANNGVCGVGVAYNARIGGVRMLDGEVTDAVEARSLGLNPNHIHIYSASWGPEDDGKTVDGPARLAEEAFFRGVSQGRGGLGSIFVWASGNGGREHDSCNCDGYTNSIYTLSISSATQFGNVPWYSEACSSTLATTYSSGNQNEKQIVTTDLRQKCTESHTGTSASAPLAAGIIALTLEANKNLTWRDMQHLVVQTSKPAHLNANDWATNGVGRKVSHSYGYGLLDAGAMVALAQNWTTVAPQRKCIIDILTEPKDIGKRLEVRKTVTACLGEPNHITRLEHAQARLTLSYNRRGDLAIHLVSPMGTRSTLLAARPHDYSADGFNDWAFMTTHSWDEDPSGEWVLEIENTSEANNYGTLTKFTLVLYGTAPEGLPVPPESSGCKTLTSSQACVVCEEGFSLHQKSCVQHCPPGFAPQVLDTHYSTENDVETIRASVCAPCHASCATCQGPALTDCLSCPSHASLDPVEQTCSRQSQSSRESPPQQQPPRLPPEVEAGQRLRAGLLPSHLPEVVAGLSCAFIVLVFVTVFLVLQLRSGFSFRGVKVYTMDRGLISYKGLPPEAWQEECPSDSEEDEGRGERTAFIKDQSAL
Tryptase g1, sequence (Q9NRR2 20-321): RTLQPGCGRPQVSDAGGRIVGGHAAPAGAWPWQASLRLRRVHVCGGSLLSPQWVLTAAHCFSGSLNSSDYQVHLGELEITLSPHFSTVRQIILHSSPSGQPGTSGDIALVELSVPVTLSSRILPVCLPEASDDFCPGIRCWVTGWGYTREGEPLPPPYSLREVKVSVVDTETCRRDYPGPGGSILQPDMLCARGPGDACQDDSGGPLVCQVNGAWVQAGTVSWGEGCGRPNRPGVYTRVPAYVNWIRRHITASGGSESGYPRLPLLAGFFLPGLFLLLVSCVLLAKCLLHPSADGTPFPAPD
T3 sequence (O15393 106-492): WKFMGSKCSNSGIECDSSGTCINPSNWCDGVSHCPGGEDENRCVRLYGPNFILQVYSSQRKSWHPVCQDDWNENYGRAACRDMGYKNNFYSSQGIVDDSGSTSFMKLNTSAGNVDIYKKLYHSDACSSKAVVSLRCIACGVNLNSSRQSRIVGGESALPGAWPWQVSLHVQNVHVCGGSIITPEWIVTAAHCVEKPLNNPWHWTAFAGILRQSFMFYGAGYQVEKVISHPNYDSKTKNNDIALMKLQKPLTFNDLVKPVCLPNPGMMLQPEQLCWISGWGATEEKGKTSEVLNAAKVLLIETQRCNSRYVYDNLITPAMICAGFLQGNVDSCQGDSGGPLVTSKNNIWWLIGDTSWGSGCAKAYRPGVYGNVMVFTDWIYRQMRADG

As a reminder, the IC50 is the concentration needed to halve the response being measured. High values mean weaker potency, low ones greater potency. As for `COc1ccc2nc(C(Cc3cccc(C(=N)N)c3)NS(=O)(=O)c3ccccc3)sc2c1` (stereo not drawn) [Compound 11, 3-[2-Benzenesulfonamido-2-(6-methoxy-1,3-benzothiazol-2-yl)ethyl]benzene-1-carboximidamide], the IC50 was above 10 µM against Cathepsin B; above 10 µM against Furin; above 10 µM against Kallikrein 7; below 10 µM on Matriptase 2; above 10 µM on MMP 1; above 10 µM at Tryptase g1.
Consider `N=C(N)c1cccc(CC(NS(=O)(=O)c2cccc(-c3ccc(Cl)cc3Cl)c2)c2nc3ccccc3s2)c1` (racemic) [3 (racemic), 3-[2-(1,3-Benzothiazol-2-yl)-2-{2′,4′-dichloro-[1,1′-biphenyl]-3-sulfonamido}ethyl]benzene-1-carboximidamide], for which the IC50 in test [1] was above 30 µM; against Cathepsin B it was above 10 µM; against Furin, above 10 µM; on Kallikrein 7 it was above 10 µM; on Matriptase 2, above 10 µM; at MMP 1, above 10 µM. This compound yielded an IC50 on Tryptase g1 below 10 µM.
For the compound `N=C(N)c1cccc(C[C@H](NS(=O)(=O)c2ccccc2)c2nnco2)c1` (single isomer, unassigned) [Compound 2 (enantiomer 1, batch 1), 3-[2-Benzenesulfonamido-2-(1,3,4-oxadiazol-2-yl)ethyl]benzene-1-carboximidamide], the IC50 in test [1] is above 30 µM; at Cathepsin B, above 10 µM; on Furin, above 10 µM; on Kallikrein 7 it was above 10 µM; against Matriptase 2 it was above 10 µM; on MMP 1, above 10 µM. At Tryptase g1, the IC50 was above 10 µM.
In the case of `N=C(N)c1cccc(CC(NS(=O)(=O)c2ccccc2)c2nc3ccccc3s2)c1` (racemic) [1 (racemic mixture, batch 1), 3-[2-Benzenesulfonamido-2-(1,3-benzothiazol-2-yl)ethyl]benzene-1-carboximidamide], the IC50 is below 30 µM in test [1]; above 10 µM against Cathepsin B; above 10 µM on Furin; above 10 µM against Kallikrein 7; above 10 µM on Matriptase 2; above 10 µM on MMP 1. In addition, the IC50 on Tryptase g1 is above 10 µM.
